Data published in patent US10918727B2, “Peptide with ability to penetrate cell membrane” (ICURE BNP CO., LTD., priority 2016, dated 2021).
Non-standard residues stand in square brackets, D forms with d. No end group written: not given here.

Assays:
[1] = tested on: nasal mucosal membrane (female BALB/c mice); test: Penetration of OVA into nasal mucosal epithelial cells after intranasal OVA/TCTP-PTD 13 mixture (immunofluorescence); type: in vivo, mouse; conditions: intranasal 10 μl, OVA 10 μM (4.5 μg), OVA:PTD 1:30, 15 minutes
Experimental: First, OVA and L-PTD 13 or D-PTD 13 were dissolved in PBS (phosphate buffered saline, pH 7.4) such that the concentrations of OVA and TCTP-PTD would be 10 μM and 300 μM, respectively, thereby preparing mixtures. Herein, OVA and TCTP-PTD were mixed at a molar ratio of 1:30.
Female BALB/c mice (6-8-week-old) were anesthetized by intraperitoneal injection of 50 mg/kg of zoletil and 10 mg/kg of xylazine.
10 μl of OVA, the OVA/D-PTD 13 mixture or the OVA/L-PTD 13 mixture was administered intranasally to each of the anesthetized mice. A control group was administered with 4.5 μg of OVA alone.
15 minutes after intranasal administration, the nasal tissue was collected. The collected nasal tissue was fixed with 10% formalin for about 24 hours, and then decalcified using 4 M formic acid at 4° C. for 30 hours. After decalcification, the nasal tissue was embedded in paraffin according to a conventional method, sectioned to a thickness of 5 μm, and attached to a slide. […] After incubation with the primary antibody, the slide was washed with PBS, and then incubated with a 1:100 dilution of secondary antibody (green fluorescence; Alexa 488-conjugated secondary antibodies, Invitrogen) at room temperature for 1 hour. The slide was washed with PBS, and then the nucleus was stained with DAPI (blue fluorescence), followed by observation with a fluorescence microscope.

[2] = Body weight-reducing effect of intranasal TCTP-PTD 13-[D-Leu-4]-OB3; type: in vivo, mouse; conditions: for body weight after 10 days compared with PBS or OB3 / rate of increase in body weight for 10 days compared with PBS or OB3: ICR mice, intranasal 2 mg/kg once each day for 10 days
Source text: A peptide (SEQ ID NO: 124) comprising [D-Leu-4]-OB3 linked to L-PTD 13 or D-PTD 13 by a GG linker was designed. Furthermore, peptides (SEQ ID NO: 125, SEQ ID NO: 126 and SEQ ID NO: 127, respectively) comprising [D-Leu-4]-OB3 linked to each of D-TCTP-PTD 13M1, D-TCTP-PTD 13M2 or D-TCTP-PTD 13M3 by a GG linker were designed. The peptides were synthesized with a purity of 90% or higher by Peptron Inc.
4-week-old male ICR mice were used as experimental animals and divided into the following groups, each consisting of 7 animals: PBS, [D-Leu-4]-OB3, L-PTD 134D-Leu-41-OB3, and D-PTD 134D-Leu-41-OB3 groups. Each of [D-Leu-4]-OB3, L-PTD 134D-Leu-41-OB3 and D-PTD 13-[D-Leu-4]-OB3 was administered intranasally to each mouse at a dose of 2 mg/kg once each day for 10 days at a uniform time point, while a change in the body weight of each of the experimental animals was measured.

[3] = Appetite-inhibiting effect (food intake) of intranasal TCTP-PTD 13-[D-Leu-4]-OB3; type: in vivo, mouse; conditions: ICR mice, intranasal 2 mg/kg; for cumulative food intake compared with PBS: measured every day for 10 days
Experimental: In order to examine whether or not the body weight-reducing effect confirmed in Example 7-2 has a connection with a decrease in food intake, PBS, [D-Leu-4]-OB3, L-PTD 13-[D-Leu-4]-OB3 or D-PTD 13-[D-Leu-4]-OB3 was administered intranasally at a dose of 2 mg/kg, and the food intake was measured everyday for 10 days.

[4] = tested on: human bronchial epithelial cell line BEAS-2B; test: Cell membrane penetration of FITC-labeled L-/D-form TCTP-PTD 13 by flow cytometry; type: cell-based; conditions: BEAS-2B cells, 2.5 μM FITC-labeled peptide, 30 minutes
Experimental: The human bronchial epithelial cell line BEAS-2B was prepared, and the cell membrane penetration ability of the TCTP-PTD peptide according to the amino acid type was analyzed by flow cytometry. Specifically, BEAS-2B cells were seeded on a 6-well plate at a density of 8×10^5 cells/well, and then cultured in cell culture medium (BEGM) for 24 hours. After 24 hours of cell culture, each well was washed twice with PBS, and then each well was treated with FITC-labeled L-form TCTP-PTD 13 (hereinafter referred to as L-PTD 13; SEQ ID NO: 27) or FITC-labeled D-form TCTP-PTD 13 (hereinafter referred to as D-PTD 13; SEQ ID NO: 27) diluted in cell culture medium such that the concentration of each TCTP-PTD would be 2.5 μM. 30 minutes after the cells were treated with the two kinds of TCTP-PTD 13, the cells were isolated from each well by use of 0.25% trypsin, and then washed 6 times with cold PBS to remove TCTP-PTD from the cell surface.

[5] = tested on: hair follicle and dermis of the skin (male BALB/c mice); test: Hair follicle penetration of FITC-labeled TCTP-PTD after transdermal administration (fluorescence microscopy); type: in vivo, mouse; conditions: 100 μl of 100 μM FITC-labeled peptide on 1 cm^2, 2 hours
Experimental: (§1) Male BALB/c mice (7-8-week-old) were prepared, and the abdominal region of the mice was shaved. Next, the mice were anesthetized by intraperitoneal injection of urethane (1.2-1.5 g/kg), and then 100 μl of each TCTP-PTD peptide solution was applied to the abdominal region of each mouse so as to be administered transdermally. Each of the peptide solutions was applied to an area of 1 cm^2.
2 hours after transdermal administration, the skin tissue was collected, fixed with 10% formalin for about 24 hours, and then treated with 30% sucrose solution for 4 hours. The pretreated skin tissue was immersed in OCT-compound, and then treated with liquid nitrogen to prepare a frozen block. The skin tissue was sectioned to a thickness of 20 μm by use of a cryotome and attached to a slide. The slide having the skin tissue attached thereto was washed five times with PBS, and then the nucleus was stained with DAPI (blue fluorescence).
The amino terminus of L-PTD 13 or D-PTD 13 was labeled with FITC (green fluorescence), and then each PTD peptide was dissolved in PBS (phosphate buffered saline, pH 7.4) to a final concentration of 100 μM.
as §1, with “of the FITC-labeled L-PTD 13 or D-PTD 13” for “TCTP-PTD peptide”

[6] = tested on: cervical cancer cell line HeLa; test: Cell membrane penetration of FITC-labeled TCTP-PTD peptides in HeLa cells (fluorescence reader); type: cell-based; conditions: 10 μM FITC-labeled peptide, 15 minutes
Experimental: The cervical cancer cell line HeLa was prepared. To detect TCTP-PTD accumulated in cells after passage through the cell membrane, the N-terminus of the synthesized peptide was labeled with FITC (fluorescein isothicyanate). Then, the cervical cancer cell line Hela was treated with 10 μM of the FITC-labeled TCTP-PTD of SEQ ID NO: 18, SEQ ID NO: 22, SEQ ID NO: 24 or SEQ ID NO: 27 for 15 minutes. After completion of the incubation, the cells were washed three times with PBS to remove FITC-TCTP-PTD remaining on the cell membrane of the HeLa cells. 500 μl of PBS was added, and then the fluorescence intensity of the FITC was measured with a fluorescence reader at 495 nm and 517 nm.

[7] = tested on: type 2 diabetic model mice (db/db mice); test: Blood glucose-lowering effect of intranasal TCTP-PTD/Ex-4 mixture in type 2 diabetic model mice after i.p. glucose; type: in vivo, mouse; conditions: Ex-4 10 μg/kg, 10 μM Ex-4 + 20 μM peptide, glucose 2.5 g/kg i.p., monitored 240 minutes
Experimental: Male db/db mice weighing 31-34 g were used as experimental animals. The mice were fasted overnight, and then the blood glucose level in the mice were measured using a blood glucose meter.
20 minutes after anesthesia, each of the prepared Ex-4/TCTP-PTD mixtures was administered intranasally to the mice (Ex-4 dose: 10 μg/kg), and a control group was administered intranasally with the same amount of Ex-4, and a negative control group was administered intranasally with the same amount of PBS. After 15 minutes, glucose (2.5 g/kg) was injected intraperitoneally to the mice, and the blood glucose level in the mice was monitored for 240 minutes.

[8] = tested on: type 1 diabetic model mice (STZ-induced male ICR mice); test: Blood glucose-lowering effect of intranasal TCTP-PTD/insulin mixture in type 1 diabetic model mice; type: in vivo, mouse; conditions: insulin 2 IU/kg, insulin:peptide 1:2, monitored 240 minutes
Experimental: Streptozotocin (STZ) was injected intraperitoneally into male ICR mice (body weight: 33-34.5 g) four times (doses: 100, 50, 50 and 50 mg/kg) at 2-day intervals to induce type 1 diabetes. At 7 days after last administration of STZ, mice having a blood glucose level of 300-350 mg/dL were selected as experimental animals.

[9] = Plasma insulin concentration after intranasal administration of insulin/TCTP-PTD mixtures (ELISA); conditions: rats, insulin 0.5 IU/kg, 50 μM insulin + 100 μM peptide, peptides compared with SEQ ID NO: 27
Source text: Male Wistar rats weighing 180-190 g were used as experimental animals and anesthetized in the same manner as described above.

[10] = tested on: normal male white Wistar rats; test: Pharmacodynamic profile of nasal insulin formulations in normal white rats (blood glucose); type: in vivo, rat; conditions: subcutaneous
Experimental: After design of the nasal insulin formulations, evaluation of the pharmacodynamic profile of each nasal insulin formulation was performed in normal white rats. Specifically, male white Wistar rats weighing 165-200 g were used as experimental animals. For accuracy of evaluation, the […] were fasted overnight, and then white rats having a blood glucose level of 90-120 mg/dL in the fasted state were used in the experiment. To calculate PA (pharmacological availability), the initial blood glucose level was taken as 100%. To administer the nasal insulation formulations, the mice were anesthetized by intraperitoneal administration of the anesthetic sodium pentobarbital (dose: 65 mg/kg).

[11] = tested on: type 1 diabetic white rats (alloxan-induced); test: Pharmacodynamic profile of nasal insulin formulations in type 1 diabetic (alloxan) rats; type: in vivo, rat; conditions: type 1 diabetic rats
Experimental: Alloxan was injected intraperitoneally to experimental white rats to induce type 1 diabetes. One week after alloxan administration, white rats having a blood glucose level of 230-300 mg/dL were used as experimental animals.

[12] = Pharmacokinetic profile of nasal insulin formulations (plasma insulin); conditions: rats

Question: For “ovalbumin [OVA (ovalbumin), 45 kDa, model antigen for vaccination]”, which “OVA fluorescence inside the nasal mucosal membrane” value [1] is on record?
Answer: not substantially observed inside the nasal mucosal membrane

Question: Which results are given for “D-PTD 13-[D-Leu-4]-OB3: peptide (SEQ ID NO: 124) comprising [D-Leu-4]-OB3 linked to D-PTD 13 by a GG linker ([dM][dI][dI][dF][dR][dA][dL][dI][dS][dH][dK][dK]GGSCS[dL]PQT)”?
Answer: body weight after 10 days compared with PBS or OB3 [2]: decreased; rate of increase in body weight for 10 days compared with PBS or OB3 [2]: lower; total food intake after 10 days of administration [3]: decreased; cumulative food intake compared with PBS [3]: decreased continuously

Question: Which “ability to penetrate the cell membrane (flow cytometry)” value [4] does the source give for “L-PTD 13: L-form TCTP-PTD 13; SEQ ID NO: 27 (MIIFRALISHKK; PTD #27)” here?
Answer: excellent ability to penetrate the cell membrane

Question: And the “penetration to hair follicle and dermis of the skin” value (“penetration … of the skin” for short) [5]?
Answer: reached the hair follicle and dermis of the skin

Question: What does the source list for “SEQ ID NO: 27: TCTP-PTD peptide of Korean Patent No. 10-0859972, basis of the variants (MIIFRALISHKK; PTD #27)”?
Answer: fluorescence of FITC-labeled peptide in cells (cell membrane penetration) [6]: high level of fluorescence; blood glucose level after i.p. glucose / blood glucose-lowering effect [7]: increase the blood glucose-lowering effect of Ex-4

Question: For “SEQ ID NO: 12: variant TCTP-PTD peptide (MIIFRLAAYHKK; PTD #12)”, which “penetration … of the skin” value [5] is on record?
Answer: reached the hair follicle and dermis of the skin

Question: Which results are given for “D-PTD 13: D-form TCTP-PTD 13; SEQ ID NO: 27 ([dM][dI][dI][dF][dR][dA][dL][dI][dS][dH][dK][dK])”?
Answer: ability to penetrate the cell membrane (flow cytometry) [4]: excellent ability to penetrate the cell membrane; penetration to hair follicle and dermis of the skin [5]: reached the hair follicle and dermis of the skin; body weight-reducing and appetite-inhibiting effects, D-form vs L-form ([2]; peptide linked to [D-Leu-4]-OB3, intranasal 2 mg/kg, 10 days, results of Examples 7-2 and 7-3 together): better effects than L-PTD 13

Question: With “L-PTD 13-[D-Leu-4]-OB3: peptide (SEQ ID NO: 124) comprising [D-Leu-4]-OB3 linked to L-PTD 13 by a GG linker (MIIFRALISHKKGGSCS[dL]PQT)” as the substance, how does the “body weight after 10 days compared with PBS or OB3” value [2] read?
Answer: decreased

Question: And the “rate of increase in body weight for 10 days compared with PBS or OB3” value [2]?
Answer: lower

Question: What about the “total food intake after 10 days of administration” value [3] of the same substance?
Answer: decreased

Question: What about the “cumulative food intake compared with PBS” value [3] of the same substance?
Answer: decreased continuously

Question: Which “change in blood glucose level” value [8] does the source give for insulin here?
Answer: no significant change in the blood glucose level

Question: And the “blood insulin concentration / insulin uptake” value [9]?
Answer: little or no change in the blood insulin concentration

Question: And the “AAC 0-180 min (area above the blood glucose level-time curve)” value ([10]; insulin 0.5 IU/kg)?
Answer: 2560

Question: And the “PA % (pharmacological availability)” value ([10]; insulin 0.5 IU/kg (reference))?
Answer: 100%

Question: And the “AAC 0-240 min (area above the blood glucose level-time curve)” value ([11]; nasal, insulin 2 IU/kg)?
Answer: 2156.65 ± 1070.68

Question: And the “AAC 0-240 min (area above the blood glucose level-time curve)” value ([11]; subcutaneous, insulin 1 IU/kg)?
Answer: 26897.33 ± 772.31

Question: What about the PA % ([11]; subcutaneous, insulin 1 IU/kg (reference)) of the same substance?
Answer: 100%

Question: And the “BA % (relative bioavailability vs s.c. insulin)” value ([12]; nasal, insulin 5 IU/kg, listed as Free insulin)?
Answer: 3.34 ± 0.38%

Question: What about the BA % ([12]; subcutaneous, insulin 0.25 IU/kg (reference)) of the same substance?
Answer: 100%

Question: With “SEQ ID NO: 17: variant TCTP-PTD peptide (MIIFRIAAYPKK; PTD #17)” as the substance, how does the “penetration … of the skin” value [5] read?
Answer: reached the hair follicle and dermis of the skin

Question: For “SEQ ID NO: 1: variant TCTP-PTD peptide (LIIFRALISHKK; PTD #1)”, which “penetration … of the skin” value [5] is on record?
Answer: reached the hair follicle and dermis of the skin
